Read-outs that look alike come from different tables or passages of the source. Starred links: 1 amine or outer side, 2 acyl side, 3 side chain; linkers in the order of their positions; H or OH if unused. Non-standard residues stand in square brackets, D forms with d. Residues, ends and D or L forms follow the SMILES beside them. Groups on a side chain read outwards from the residue. *: point of attachment. C20 diacid = O=C(O)CCCCCCCCCCCCCCCCCCC(=O)*; C18 diacid = O=C(O)CCCCCCCCCCCCCCCCC(=O)*; γGlu = O=C(O)[C@H](CCC(=O)[*:2])N[*:1]; αMeF = C[C@](N)(Cc1ccccc1)C(=O)O; AEEA = NCCOCCOCC(=O)O; Aib = CC(C)(N)C(=O)O

A short description of experiment [1]: Mouse acute food intake study. It is filed as in vivo. The conditions noted are these: male C57Bl/6 mice, s.c., cumulative food intake at 24 hr vs vehicle. In short, it runs like this:
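Peptide or vehicle went subcutaneously (5 mL/kg) to 6-8 h-fasted male C57Bl/6 mice shortly before the dark phase, with groups balanced on body weight and 24-hour intake. Cumulative food consumption was derived from 48 h of automated BioDaq monitoring with free food and water access.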

Experiment [2] has as its system GLP-1R knockout (KO) mice. The experiment is described as follows: Glucose change in GLP-1R knockout mice. It is filed as in vivo, mouse. Particulars: GLP-1R KO mice, s.c.; for GLP-1R KO % glucose change 120 min: 120 min vs 0 min; for GLP-1R KO % glucose change - 60 min: 60 min vs 0 min. As for the experimental part: (§1) They acclimated for a minimum of ˜1-2 weeks, and mice were sorted into groups (n=4-8/group) based on body weight. On day of study, mice were fasted briefly for 2 hrs prior to study start. In some studies, mice were pre-treated with octreotide (BaChem, 10 mg/kg) at 30 minutes prior to peptide injection. Glucose was measured via glucometer at various timepoints including-30 min (prior to octreotide when used in studies), 0 min (before peptide dose), 30, 60, 120, 180, 240, and 360 minutes. Since these studies are acute in nature, mice were re-used for multiple studies (no more than 3) and always allowed at least a minimum wash-out period of 1 week.

In experiment [3] the test system is wildtype (WT) mice. In words: Glucose change in wildtype mice. In kind it is in vivo, mouse. Particulars: s.c.; for WT % glucose change 120 min: 120 min vs 0 min; for WT % glucose change 60 min: 60 min vs 0 min. As for the experimental part: as §1, with “GLP-1R knockout (KO) and wildtype (WT) mice at 8-14 weeks of age were singly housed on standard chow diet (Envigo, 2918) and automatic water. They” for “They”

Experiment [4] deals with human GLP-1 receptor (hGLP-1R) (Homo sapiens, UniProt P43220). In words: cAMP production (HTRF) in CHO cells expressing hGLP-1R. Set-up: expressed in transfected cells. The conditions noted are these: for EC50: geometric mean, read-out: hGLP-1R EC50; for % Relative Potency Ratio: % GLP-1R activity relative to GLP-1 / % GlucR activity relative to glucagon. In kind it is cell-based. The method in brief:
(§2)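 Cells were resuspended in assay buffer at batch-optimized density, typically 1×10^5 cells/mL for hGLP-1R and 2×10^5 cells/mL for hGCGR. After 30 min incubation at room temperature with compound, cAMP was measured by two-step HTRF. EC50 values came from 4-parameter logistic fits of % Delta F.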

Experiment [5] concerns the target human glucagon receptor (hGCGR) (Homo sapiens, UniProt P47871). The experiment is described as follows: cAMP production (HTRF) in CHO cells expressing hGCGR. It is filed as cell-based. The arrangement: expressed in transfected cells. The conditions noted are these: geometric mean, read-out: hGluc-R EC50. In short, it runs like this: as §2
Where [6] appears, read: 10 nmol/kg, somatostatin pretreatment (octreotide) 30 min prior to cpd.
Where [7] appears, read: 30 nmol/kg, somatostatin pretreatment (octreotide) 30 min prior to cpd.
[8] abbreviates: Table 7, peptides modified at position 20, cAMP in CHO hGLP-1R cells.
Where [9] appears, read: Table 7, peptides modified at position 20, cAMP in CHO hGCGR cells.
The mark [10] stands for this setting: 10 nmol/kg, no somatostatin pretreatment.
Where [11] appears, read: 30 nmol/kg, no somatostatin pretreatment.

human GLP-1 receptor (hGLP-1R), sequence (P43220 24-463): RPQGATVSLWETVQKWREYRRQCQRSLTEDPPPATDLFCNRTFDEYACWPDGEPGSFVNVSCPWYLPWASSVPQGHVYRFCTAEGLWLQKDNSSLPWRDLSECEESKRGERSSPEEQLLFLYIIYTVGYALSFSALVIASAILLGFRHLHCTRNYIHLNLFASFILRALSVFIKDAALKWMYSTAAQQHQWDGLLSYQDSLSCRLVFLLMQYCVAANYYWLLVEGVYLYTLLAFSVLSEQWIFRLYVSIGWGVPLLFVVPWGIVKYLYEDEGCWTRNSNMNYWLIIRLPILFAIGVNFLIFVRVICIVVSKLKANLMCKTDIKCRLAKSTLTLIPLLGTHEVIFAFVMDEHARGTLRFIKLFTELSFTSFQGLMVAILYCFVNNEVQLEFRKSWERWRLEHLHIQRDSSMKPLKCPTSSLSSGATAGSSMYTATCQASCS
human glucagon receptor (hGCGR), sequence (P47871 26-477): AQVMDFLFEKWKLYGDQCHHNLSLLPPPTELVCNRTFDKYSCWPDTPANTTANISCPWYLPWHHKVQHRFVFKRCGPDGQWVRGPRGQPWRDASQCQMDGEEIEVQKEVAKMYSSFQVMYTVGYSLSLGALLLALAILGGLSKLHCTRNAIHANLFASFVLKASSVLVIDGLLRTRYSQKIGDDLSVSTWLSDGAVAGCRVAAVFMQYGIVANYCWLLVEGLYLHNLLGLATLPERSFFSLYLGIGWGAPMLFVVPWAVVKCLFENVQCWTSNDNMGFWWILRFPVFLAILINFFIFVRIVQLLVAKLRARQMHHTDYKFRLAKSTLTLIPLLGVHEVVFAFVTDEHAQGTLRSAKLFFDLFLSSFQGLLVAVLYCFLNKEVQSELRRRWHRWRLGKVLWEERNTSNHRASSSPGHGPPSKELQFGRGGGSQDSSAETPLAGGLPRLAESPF

As for `CC[C@H](C)[C@H](NC(=O)[C@H](Cc1c[nH]c2ccccc12)NC(=O)[C@H](CCC(N)=O)NC(=O)[C@@H](NC(=O)[C@H](Cc1ccccc1)NC(=O)[C@H](CC(=O)O)NC(=O)[C@H](CCCCNC(=O)COCCOCCNC(=O)COCCOCCNC(=O)CC[C@H](NC(=O)CCCCCCCCCCCCCCCCC(=O)O)C(=O)O)NC(=O)[C@H](C)NC(=O)[C@H](C)NC(=O)[C@H](CCC(N)=O)NC(=O)[C@H](CO)NC(=O)[C@H](CC(=O)O)NC(=O)[C@H](CC(C)C)NC(=O)[C@](C)(Cc1ccccc1)NC(=O)[C@H](CCCCN)NC(=O)[C@H](CO)NC(=O)[C@@H](NC(=O)[C@H](CC(=O)O)NC(=O)[C@H](CO)NC(=O)[C@@H](NC(=O)[C@](C)(Cc1ccccc1)NC(=O)[C@H](CO)NC(=O)CNC(=O)[C@H](Cc1c[nH]cn1)NC(=O)C(C)(C)NC(=O)[C@@H](N)Cc1c[nH]cn1)[C@@H](C)O)C(C)C)C(C)C)C(=O)N[C@@H](C)C(=O)N[C@@H](CC(N)=O)C(=O)N[C@H](C(N)=O)[C@@H](C)O` [Peptide 203] (H-H[Aib]HGS[αMeF]TSDVSK[αMeF]LDSQAAK([AEEA-AEEA-γGlu-C18 diacid])DFVQWIANT-NH2; N-terminus assumed), the “24 hr % Vehicle Food Intake” value in experiment [1] (dose 10 nmol/kg) is listed as 81.4%. The “GLP-1R KO % glucose change 120 min” value is 54.6% in experiment [2] (setting [6]) and 106.9% in experiment [2] (setting [7]). Moreover, the “WT % glucose change 120 min” value in experiment [3] (setting [6]) is −29.5%; in experiment [3] (setting [7]), −36.5%. The concentration for a half-maximal effect (EC50) in experiment [4] (setting [8]) worked out at 0.0775 nM; in experiment [5] (setting [9]) it was 0.0341 nM. Besides, in experiment [4] (Table 7), the “% Relative Potency Ratio” value worked out at 0.9.

For the molecule `CC[C@H](C)[C@H](NC(=O)[C@H](Cc1c[nH]c2ccccc12)NC(=O)[C@H](CCC(N)=O)NC(=O)[C@@H](NC(=O)[C@H](Cc1ccccc1)NC(=O)[C@H](CC(=O)O)NC(=O)[C@H](CCCCNC(=O)COCCOCCNC(=O)COCCOCCNC(=O)CC[C@H](NC(=O)CC[C@H](NC(=O)CCCCCCCCCCCCCCCCCCC(=O)O)C(=O)O)C(=O)O)NC(=O)[C@H](C)NC(=O)[C@H](C)NC(=O)[C@H](CCCNC(=N)N)NC(=O)[C@H](CO)NC(=O)[C@H](CC(=O)O)NC(=O)[C@H](CC(C)C)NC(=O)[C@H](Cc1ccc(O)cc1)NC(=O)[C@H](CCCCN)NC(=O)[C@H](CO)NC(=O)[C@@H](NC(=O)[C@H](CC(=O)O)NC(=O)[C@H](CO)NC(=O)[C@@H](NC(=O)[C@](C)(Cc1ccccc1)NC(=O)[C@H](CO)NC(=O)CNC(=O)[C@H](Cc1c[nH]cn1)NC(=O)C(C)(C)NC(=O)[C@@H](N)Cc1c[nH]cn1)[C@@H](C)O)C(C)C)C(C)C)C(=O)N[C@@H](C)C(=O)N[C@@H](CC(N)=O)C(=O)N[C@H](C(N)=O)[C@@H](C)O` [Peptide 289] (H-H[Aib]HGS[αMeF]TSDVSKYLDSRAAK([AEEA-AEEA-γGlu-γGlu-C20 diacid])DFVQWIANT-NH2), the “24 hr % Vehicle Food Intake” value in experiment [1] (dose 3 nmol/kg) came out at 76.1%; in experiment [1] (dose 10 nmol/kg) it was 49.6%. Further, the “GLP-1R KO % glucose change 120 min” value came out at 8.9% in experiment [2] (setting [10]) and 7.7% in experiment [2] (setting [11]). Also, the “WT % glucose change 120 min” value in experiment [3] (setting [10]) is on record as −8.5%; in experiment [3] (setting [11]), −16.1%. For the same molecule, the EC50 was determined as 0.118 nM in experiment [4] (setting [8]) and 0.148 nM in experiment [5] (setting [9]). In addition, in experiment [4] (Table 7), the “% Relative Potency Ratio” value was found to be 2.5.

As for `CC[C@H](C)[C@H](NC(=O)C(C)(C)NC(=O)[C@H](C)NC(=O)[C@@H](NC(=O)[C@](C)(Cc1ccccc1)NC(=O)[C@H](CC(=O)O)NC(=O)[C@H](CCCCNC(=O)COCCOCCNC(=O)COCCOCCNC(=O)CC[C@H](NC(=O)CCCCCCCCCCCCCCCCC(=O)O)C(=O)O)NC(=O)[C@H](C)NC(=O)[C@H](C)NC(=O)[C@H](CCCNC(=N)N)NC(=O)[C@H](CO)NC(=O)[C@H](CC(=O)O)NC(=O)[C@H](CC(C)C)NC(=O)[C@](C)(Cc1ccccc1)NC(=O)[C@H](CCCCN)NC(=O)[C@H](CO)NC(=O)[C@@H](NC(=O)[C@H](CC(=O)O)NC(=O)[C@H](CO)NC(=O)[C@@H](NC(=O)[C@](C)(Cc1ccccc1)NC(=O)[C@H](CO)NC(=O)CNC(=O)[C@H](Cc1c[nH]cn1)NC(=O)C(C)(C)NC(=O)[C@@H](N)Cc1c[nH]cn1)[C@@H](C)O)C(C)C)[C@@H](C)CC)C(=O)N[C@@H](C)C(=O)N[C@@H](CCC(=O)O)C(=O)N[C@H](C(N)=O)[C@@H](C)O` [Peptide 301] (H-H[Aib]HGS[αMeF]TSDVSK[αMeF]LDSRAAK([AEEA-AEEA-γGlu-C18 diacid])D[αMeF]IA[Aib]IAET-NH2; N-terminus assumed), the “24 hr % Vehicle Food Intake” value in experiment [1] (dose 10 nmol/kg) came out at 54.9%. Also, the “GLP-1R KO % glucose change - 60 min” value in experiment [2] (setting [10]) is recorded as 29.1%; in experiment [2] (setting [11]), 17.9%. Moreover, the results for the “WT % glucose change 60 min” value in experiment [3] (setting [10]) and in experiment [3] (setting [11]) were −43% and −35.7%, respectively. For the same molecule, the 50% effective concentration (EC50) in experiment [4] (setting [8]) was found to be 0.0553 nM; in experiment [5] (setting [9]) it was 0.0318 nM. Further, the “% Relative Potency Ratio” value in experiment [4] (Table 7) was 1.1.

Turning to `CC[C@H](C)[C@H](NC(=O)[C@H](Cc1c[nH]c2ccccc12)NC(=O)[C@H](CCCCNC(=O)COCCOCCNC(=O)COCCOCCNC(=O)CC[C@H](NC(=O)CCCCCCCCCCCCCCCCC(=O)O)C(=O)O)NC(=O)[C@@H](NC(=O)[C@H](Cc1ccccc1)NC(=O)[C@H](CC(=O)O)NC(=O)[C@H](CCC(N)=O)NC(=O)[C@H](C)NC(=O)[C@H](C)NC(=O)[C@H](CCCNC(=N)N)NC(=O)[C@H](CO)NC(=O)[C@H](CC(=O)O)NC(=O)[C@H](CC(C)C)NC(=O)[C@](C)(Cc1ccccc1)NC(=O)[C@H](CCCCN)NC(=O)[C@H](CO)NC(=O)[C@@H](NC(=O)[C@H](CC(=O)O)NC(=O)[C@H](CO)NC(=O)[C@@H](NC(=O)[C@](C)(Cc1ccccc1)NC(=O)[C@H](CO)NC(=O)CNC(=O)[C@H](Cc1c[nH]cn1)NC(=O)C(C)(C)NC(=O)[C@@H](N)Cc1c[nH]cn1)[C@@H](C)O)C(C)C)C(C)C)C(=O)N[C@@H](C)C(=O)N[C@@H](CC(N)=O)C(=O)N[C@H](C(N)=O)[C@@H](C)O` [Peptide 361] (H-H[Aib]HGS[αMeF]TSDVSK[αMeF]LDSRAAQDFVK([AEEA-AEEA-γGlu-C18 diacid])WIANT-NH2; N-terminus assumed), the “24 hr % Vehicle Food Intake” value in experiment [1] (dose 10 nmol/kg) turned out to be 78.8%. Moreover, the results for the “GLP-1R KO % glucose change 120 min” value in experiment [2] (setting [6]) and in experiment [2] (setting [7]) were 91.5% and 93.8%, respectively. The “WT % glucose change 120 min” value is −23.0% in experiment [3] (setting [6]) and −38.1% in experiment [3] (setting [7]). Further, the “% Relative Potency Ratio” value in experiment [4] came to 1.3. For the same molecule, the concentration giving a half-maximal response (EC50) is 0.0357 nM in experiment [4] (cAMP, CHO cells, 0.1% BSA) and 0.0236 nM in experiment [5] (cAMP, CHO cells, 0.1% BSA).

The values above are taken from patent publication US20250353891A1 (MEDIMMUNE LIMITED, priority 2022, published 2025).
